In patent publication US11634424B2 (priority 2019, dated 2023):
Several values for one entry are separate records, joined by “and”; a condition that tells them apart may be missing. Identical values can stand only once. Like-named read-outs stand apart in the source and are kept apart here.

Key:
[1] = biological target: Chk1 (Homo sapiens (Human), UniProt O14757); experiment: biochemical; assay type: biochemical; details: read-out: Chk1 inhibition IC50
Procedure: The compounds of the present disclosure used in the experiments were self-prepared, and their chemical names and structural formulas were shown in the preparation embodiments of each compound. The determination mixture containing embodiment compounds of the present disclosure and Chk1 and Chk2 kinases were incubated in a microtiter plate, and CHK1 inhibitor activity of compounds were tested by monitoring the phosphorylation of Chk1 and Chk2 kinases on a synthetic peptide substrate with a specific amino acid sequence ([…], SEQ ID NO: 1). The test was carried out on the KinaseProfiler™ protein kinase activity detection platform of Eurofins, and the experimental results were provided by the company. The procedure was as follows: Chk1 and Chk2 kinases were diluted with 20 mM MOPS (morpholinpropane sulfonic acid), 1 mM EDTA (ethylenediaminetetraacetic acid), 0.04% Brij-35, 5% glycerol, 0.1% 2-mercaptoethanol, 1 mg/mL BSA (bovine serum albumin) and added to the reaction system, and the reaction system contained the embodiment compounds, 8 mM MOPS pH 7.0, 0.2 mM EDTA, […] polypeptide substrate ([…], SEQ ID NO: 1), 10 mM magnesium acetate and a certain concentration of [γ-33P]-ATP (the strength was about 500 cpm/pmol). A mixture solution of Mg^2′ and ATP (adenosine triphosphate) was added to initiate the reaction and the reaction solution was incubated at room temperature for 40 min. 0.5% Phosphate buffer was added to terminate the reaction. 10 μL of the reaction solution was filtered four times on a continuous filter P30, washed three times with […], and once with methanol, each wash for 4 min. The value was read with scintillation counting method after drying.

[2] = biological target: Chk2 (Homo sapiens (Human), UniProt O96017); experiment: Chk2 kinase activity test, Eurofins KinaseProfiler, [γ-33P]-ATP peptide substrate phosphorylation; assay type: biochemical
Procedure: The compounds of the present disclosure used in the experiments were self-prepared, and their chemical names and structural formulas were shown in the preparation embodiments of each compound. […] The test was carried out on the KinaseProfiler™ protein kinase activity detection platform of Eurofins, and the experimental results were provided by the company. […] A mixture solution of Mg^2′ and ATP (adenosine triphosphate) was added to initiate the reaction and the reaction solution was incubated at room temperature for 40 min. 0.5% Phosphate buffer was added to terminate the reaction. […] The value was read with scintillation counting method after drying.

[3] = Pharmacokinetic evaluation of compounds in mice; assay type: in vivo; details: mouse, plasma, female C57BL/6 mice; for bioavailability: oral, gavage 10 mg/kg vs intravenous 1 mg/kg, read-out: F (bioavailability); for AUC(0-t): 0 to 24 h; for Cmax: route not given (gavage group 10 mg/kg); for half-life: read-out: Intravenous injection T1/2 (converted)
[4] = tested on: human ovarian cancer OVCAR-3 subcutaneous xenograft tumor; experiment: In vivo pharmacodynamics, human ovarian cancer OVCAR-3 subcutaneous xenograft tumor BALB/c nude mouse model; parameters: species or system BALB/c nude mice; details: oral twice a day, Compound 18 75 mg/kg, Compound 19 25 mg/kg; for Tumor volume (D 21): D 21, mean ± SEM, n = 6
Procedure: Experimental purpose: To evaluate the in vivo efficacy of the compounds of the present disclosure in the human ovarian cancer OVCAR-3 subcutaneous xenograft tumor BALB/c nude mouse model.
Experimental animal: Female BALB/c nude mice, 6-8 weeks old, weighing 18-22 grams; supplier: Beijing Vital River Laboratory Animal Technology Co., Ltd. Experimental methods and steps:
Human ovarian cancer OVCAR-3 (ATCC-HTB-161) cells were cultured in vitro in monolayer, and the culture conditions were RPMI1640 culture medium with 20% fetal bovine serum, 0.01 mg/mL bovine insulin, and 1% double antibody, and the cells were incubated at 37° C., 5% CO2 incubator. Routine digestion with trypsin was performed twice a week for passage. When the cell saturation was 80%-90% and the number reached the requirement, the cells were harvested, counted and inoculated.
0.1 mL (10×10^6 cells) of OVCAR-3 cells were subcutaneously inoculated into the right back of each mouse, and the mice were administrated in groups when the average tumor volume reached 122 mm^3.
Compound 18, compound 19 were formulated as 2 mg/mL clear solutions with 10% dimethyl sulfoxide-20% polyethylene glycol 400-5% Tween 80-65% water.
Tumor diameters were measured with vernier calipers twice a week. The calculation formula of tumor volume was. V=0.5a×b^2, where a and b represented the long and short diameters of the tumor, respectively.
The antitumor efficacy of the compounds was evaluated by TGI (%). TGI (%), reflecting tumor growth inhibition rate. TGI (%/c)=[(1-(average tumor volume at the end of administration of a certain treatment group-average tumor volume at the beginning of administration of this treatment group)/(average tumor volume at the end of treatment in the solvent control group-average tumor volume at the beginning of administration of this solvent control group)]×100%. The relative tumor volume (RTV) was calculated according to the results of tumor measurement, and the calculation formula was RTV=Vt/V0, where V0 was measured at the time of group administration (i.e., D0), and Vt was the average tumor volume at the time of one measurement.
Statistical analysis was performed using SPSS software based on RTV data at the end of the test. The Ttest was used for the comparison between two groups, and the one-way ANOVA was used for the comparison between three or more groups. If the variance was homogeneous (no significant difference in F value), Tukey's method was used for analysis; if the variance was not homogeneous (significant difference in F value), Games-Howell method was used for test. p<0.05 was considered that a significant difference was performed.

[5] = po, gavage 10 mg/kg, read-out: Oral AUC0-last
[6] = intravenous injection 1 mg/kg, read-out: Intravenous Injection AUC0-last

Sequence of Chk2 (O96017 whole entry): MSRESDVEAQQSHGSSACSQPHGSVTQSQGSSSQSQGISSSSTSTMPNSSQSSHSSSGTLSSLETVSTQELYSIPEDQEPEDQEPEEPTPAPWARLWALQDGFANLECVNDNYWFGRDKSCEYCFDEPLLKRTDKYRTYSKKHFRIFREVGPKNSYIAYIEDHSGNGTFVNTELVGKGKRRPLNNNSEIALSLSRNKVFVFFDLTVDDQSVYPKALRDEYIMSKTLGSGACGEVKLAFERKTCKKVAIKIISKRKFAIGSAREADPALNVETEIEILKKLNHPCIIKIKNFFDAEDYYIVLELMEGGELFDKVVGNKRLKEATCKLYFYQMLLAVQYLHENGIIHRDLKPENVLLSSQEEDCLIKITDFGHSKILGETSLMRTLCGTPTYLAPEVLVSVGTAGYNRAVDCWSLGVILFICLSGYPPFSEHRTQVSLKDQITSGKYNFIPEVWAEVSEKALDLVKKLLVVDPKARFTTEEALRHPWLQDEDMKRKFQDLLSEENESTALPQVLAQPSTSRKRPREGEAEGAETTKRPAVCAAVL
Sequence of Chk1 (O14757 whole entry): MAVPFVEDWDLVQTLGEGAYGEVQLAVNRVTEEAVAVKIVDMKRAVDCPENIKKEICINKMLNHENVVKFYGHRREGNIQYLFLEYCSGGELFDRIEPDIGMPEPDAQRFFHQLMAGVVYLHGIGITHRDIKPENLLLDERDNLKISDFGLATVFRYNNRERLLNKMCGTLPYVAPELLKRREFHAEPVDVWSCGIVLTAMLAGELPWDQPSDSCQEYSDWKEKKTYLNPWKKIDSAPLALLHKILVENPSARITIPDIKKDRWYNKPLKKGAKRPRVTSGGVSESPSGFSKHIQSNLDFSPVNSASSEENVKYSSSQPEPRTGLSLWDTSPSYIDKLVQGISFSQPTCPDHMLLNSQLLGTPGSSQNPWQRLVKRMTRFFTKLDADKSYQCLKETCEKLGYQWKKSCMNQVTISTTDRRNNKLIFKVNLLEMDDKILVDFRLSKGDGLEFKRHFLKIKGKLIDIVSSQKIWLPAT

`[2H]C([2H])([2H])Oc1nc(C)ccc1-c1cc(Nc2cnc3c(F)cn(C4CCN(C)CC4)c3n2)n[nH]1` [Compound 20] showed an IC50 [1] of 2 nM, an IC50 [2] of 282 nM and a bioavailability [3] of 41.9%. It also gave an AUC(0-t) [3, 5] of 5.13 µM·h, a Cmax ([3]; po) of 1260 nM and a Vd ([3]; intravenous injection 1 mg/kg) of 2.7 L/kg. For the same compound, the clearance ([3]; intravenous injection 1 mg/kg) was 30.9 mL/min/kg, the AUC(0-t) [3, 6] was 1.21 µM·h and the half-life ([3]; intravenous injection 1 mg/kg) was 84 min.
`Fc1cccc(OC(F)(F)F)c1-c1cc(Nc2cnc3ccn(C4CCNCC4)c3n2)n[nH]1` [Compound 11] showed an IC50 [1] of 3 nM and an IC50 ([2]; read-out: Chk2 inhibition IC50) of 99 nM.
For `COc1nc(C)ccc1-c1cc(Nc2cnc3ccn(CC4CNC4)c3n2)n[nH]1` [Compound 4], the IC50 [1] was 3 nM and the IC50 ([2]; read-out: Chk2 inhibition IC50) was 333 nM.
For `COc1nc(C)ccc1-c1cc(Nc2cnc3c(F)cn(C4CCN(C)CC4)c3n2)n[nH]1` [Compound 19], the bioavailability [3] was 39.1%, the AUC(0-t) [3, 5] was 3.91 µM·h and the Cmax ([3]; po) was 1220 nM. For the same compound, the Vd ([3]; intravenous injection 1 mg/kg) was 2.4 L/kg, the clearance ([3]; intravenous injection 1 mg/kg) was 33.1 mL/min/kg and the AUC(0-t) [3, 6] was 1.15 µM·h. For the same compound, the half-life ([3]; intravenous injection 1 mg/kg) was 66 min, the “Tumor volume (D 21)” value [4] was 131 mm^3 and 131 ± 12 mm^3 and the “RTV (D 21)” value [4] was 1.14. The “TGI (%) (D 21)” value [4] was 98.8% and 98.76%.
With `COc1ccccc1-c1cc(Nc2cnc3ccn(C4CCNCC4)c3n2)n[nH]1` [Compound 10] the IC50 [1] was 2 nM and the IC50 ([2]; read-out: Chk2 inhibition IC50) was 62 nM.
With `COc1cc(F)ccc1-c1cc(Nc2cnc3ccn(C4CCNCC4)c3n2)n[nH]1` [Compound 12] the IC50 [1] was 1 nM and the IC50 ([2]; read-out: Chk2 inhibition IC50) was 32 nM.
For `[2H]C([2H])([2H])Oc1nc(C)ccc1-c1cc(Nc2cnc3ccn(C4CCN(C([2H])([2H])[2H])CC4)c3n2)n[nH]1` [Compound 22], the IC50 [1] was 1 nM and the IC50 [2] was 386 nM.
Work on `COc1ccc(F)cc1-c1cc(Nc2cnc3ccn(C4CCNCC4)c3n2)n[nH]1` [Compound 8] yielded an IC50 [1] of 1 nM and an IC50 ([2]; read-out: Chk2 inhibition IC50) of 188 nM.
Work on `COc1cc(C)ccc1-c1cc(Nc2cnc3ccn(C4CCNCC4)c3n2)n[nH]1` [Compound 13] yielded an IC50 [1] of 2 nM and an IC50 ([2]; read-out: Chk2 inhibition IC50) of 84 nM.
Compound `[2H]c1cn(C2CCNCC2)c2nc(Nc3cc(-c4ccc(C)nc4OC)[nH]n3)cnc12` [Compound 6] has an IC50 [1] of under 1 nM and an IC50 [2] of 64 nM.
`COc1nc(C)ccc1-c1cc(Nc2cnc3ccn(C4CCNCC4)c3n2)n[nH]1` [Compound 1] showed an IC50 [1] of under 1 nM.
`COc1nc(C)ccc1-c1cc(Nc2cnc3ccn(C4CCN(C)CC4)c3n2)n[nH]1` [Compound 18] showed a bioavailability [3] of 33.2%, an AUC(0-t) [3, 5] of 3.63 µM·h and a Cmax ([3]; po) of 1220 nM. For the same compound, the Vd ([3]; intravenous injection 1 mg/kg) was 1.9 L/kg, the clearance ([3]; intravenous injection 1 mg/kg) was 35.3 mL/min/kg and the AUC(0-t) [3, 6] was 1.14 µM·h. For the same compound, the half-life ([3]; intravenous injection 1 mg/kg) was 54 min, the “Tumor volume (D 21)” value [4] was 180 ± 16 mm^3 and the “Tumor volume (D 21)” value ([4]; listed as compound 18) was 180 mm^3. The “RTV (D 21)” value [4] was 1.49, the “TGI (%) (D 21)” value [4] was 92.34% and the “TGI (%) (D 21)” value ([4]; listed as compound 18) was 92.3%.
`COc1nc(C)ccc1-c1cc(Nc2cnc3ccn(C[C@H]4CCNC4)c3n2)n[nH]1` [Compound 5] showed an IC50 [1] of 3 nM and an IC50 ([2]; read-out: Chk2 inhibition IC50) of 375 nM.
`COc1cc(Cl)ccc1-c1cc(Nc2cnc3ccn(C4CCNCC4)c3n2)n[nH]1` [Compound 14] gave an IC50 [1] of 1 nM and an IC50 ([2]; read-out: Chk2 inhibition IC50) of 73 nM.
`[2H]C([2H])([2H])N1CCC(n2ccc3ncc(Nc4cc(-c5ccc(C)nc5OC)[nH]n4)nc32)CC1` [Compound 21] showed an IC50 [1] of 1 nM and an IC50 [2] of 362 nM.
With `COc1nc(C(F)(F)F)ccc1-c1cc(Nc2cnc3ccn(C4CCNCC4)c3n2)n[nH]1` [Compound 9] the IC50 [1] was 2 nM and the IC50 ([2]; read-out: Chk2 inhibition IC50) was 1010 nM.
With `COc1nc(C)ccc1-c1cc(Nc2cnc3c(F)cn(C4CCNCC4)c3n2)n[nH]1` [Compound 2] the IC50 [1] was 2 nM.
